Data: patent US10932472B2, “Coffee extract and its agrochemical use against plant pathogens” (KAMAD KNOWLEDGE SOLUTIONS SL, priority 2013, dated 2021)

Tests used:
Details in all cases: in vitro conditions
Phytophthora capcisi = assay: In vitro inhibition of mycelial growth on amended PDA media; type: cell-based
Procedure: (§1) Additionally, an in vitro efficacy test was performed in order to determine the effect of PA5 against other Phytopathogens. Each pathogen strain was exposed to 0.5 and 2 cc/l, amended to PDA media. The inhibition percentage was evaluated against the control during 7 days.

Collectotrichum sp = assay: as above; type: cell-based
Procedure: as §1

Botrytis cinerea = assay: as above; type: cell-based
Procedure: as §1

[1] = system: coffee leaf rust uredospores; assay: In vitro germination of coffee leaf rust uredospores (laboratory tests 2013); type: cell-based, Hemileia vastarix
Procedure: A laboratory methodology to understand the mode of action of PA1 (1%) was developed. The efficacy was performed using coffee leaf rust uredospores, collected in the field.

Q: How did the growth inhibition (Phytophthora capcisi) turn out when `O=C(O)c1ccc(O)c(O)c1` [PA, 3,4-dihydroxybenzoic acid] was run?
A: inhibits the growth

Q: What about the growth inhibition (Collectotrichum sp) of the same molecule?
A: inhibits the growth

Q: What about the growth inhibition (Botrytis cinerea) of the same molecule?
A: inhibits the growth

Q: And the “concentration with direct fungicide action on uredospores germination” value [1]?
A: 0.25 mg/mL
